From US20240209028A1, “CNP COMPOUNDS” (priority 2022, published 2024)
Starred links: 1 amine or outer side, 2 acyl side, 3 side chain; linkers in the order of their positions; H or OH if unused. Positions of bridges follow the written chain, without caps; N, C: chain ends. Residues, ends and D or L forms follow the SMILES beside them. *: point of attachment. C18 diacid = O=C(O)CCCCCCCCCCCCCCCCC(=O)*; γGlu = O=C(O)[C@H](CCC(=O)[*:2])N[*:1]; AEEA = NCCOCCOCC(=O)O

Target: T1, human natriuretic peptide receptor 2 (hNPR2) (Homo sapiens, UniProt P20594)
T1 construct: expressed in transfected cells; host or cells: HEK293 (ATCC CRL-1573), clone 35, co-transfected with pGloSensor-42F
T1 sequence (P20594 23-1047): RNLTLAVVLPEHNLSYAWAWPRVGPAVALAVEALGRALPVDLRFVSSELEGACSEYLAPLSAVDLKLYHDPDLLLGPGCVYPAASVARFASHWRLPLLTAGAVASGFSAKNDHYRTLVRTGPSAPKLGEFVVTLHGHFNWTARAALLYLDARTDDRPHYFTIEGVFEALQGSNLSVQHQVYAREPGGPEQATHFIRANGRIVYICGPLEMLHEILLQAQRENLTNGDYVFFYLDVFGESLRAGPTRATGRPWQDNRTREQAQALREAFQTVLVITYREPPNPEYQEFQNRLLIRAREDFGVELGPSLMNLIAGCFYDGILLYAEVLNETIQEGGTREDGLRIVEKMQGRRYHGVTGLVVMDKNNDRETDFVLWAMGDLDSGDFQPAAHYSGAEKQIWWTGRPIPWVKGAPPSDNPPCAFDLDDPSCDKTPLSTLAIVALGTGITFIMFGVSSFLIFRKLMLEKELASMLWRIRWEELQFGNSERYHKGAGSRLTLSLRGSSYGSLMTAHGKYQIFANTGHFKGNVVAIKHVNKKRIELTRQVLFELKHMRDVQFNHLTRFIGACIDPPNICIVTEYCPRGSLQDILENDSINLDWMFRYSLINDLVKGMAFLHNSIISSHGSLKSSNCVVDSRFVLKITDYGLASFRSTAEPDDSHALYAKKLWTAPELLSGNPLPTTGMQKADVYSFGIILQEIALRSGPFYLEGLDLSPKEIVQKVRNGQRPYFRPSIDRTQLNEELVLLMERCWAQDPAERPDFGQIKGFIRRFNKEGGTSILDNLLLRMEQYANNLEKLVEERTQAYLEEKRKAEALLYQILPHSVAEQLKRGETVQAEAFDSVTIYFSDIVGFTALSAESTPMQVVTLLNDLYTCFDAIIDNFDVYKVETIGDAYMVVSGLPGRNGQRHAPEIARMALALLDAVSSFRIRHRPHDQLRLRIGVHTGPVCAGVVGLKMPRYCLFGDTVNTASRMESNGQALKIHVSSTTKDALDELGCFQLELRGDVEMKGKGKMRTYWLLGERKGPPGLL
Test: In vitro hNPR2 activity assay (cGMP GloSensor reporter, HEK293)
Assay type: cell-based
Conditions: potency relative to CNP22 (0065)
Method in brief: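 Potency is the EC50 from a four-parameter logistic fit, also expressed relative to the in-plate CNP22 control (×100), with at least two replicates. Compounds (ten concentrations, […], HSA-free diluent with 1% OVA, 0.01% Tween20) were incubated 30 min at 37 °C on HEK293 cells co-expressing hNPR2 and a GloSensor cGMP luciferase. Luminescence detected with Bright-Glo.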

Row | Compound | hNPR2 0% HSA. [EC50% rel CNP] [%]
1 | CC[C@H](C)[C@@H]1NC(=O)[C@H](CCCNC(=N)N)NC(=O)[C@H](CC(=O)O)NC(=O)[C@H](CC(C)C)NC(=O)[C@@H]2CCCN2C(=O)[C@H](CC(C)C)NC(=O)CNC(=O)[C@H](Cc2ccccc2)NC(=O)[C@@H](NC(=O)CNC(=O)[C@H](CO)NC(=O)[C@H](CO)NC(=O)[C@H](CC(C)C)NC(=O)CNC(=O)[C@H](CCCCN)NC(=O)[C@H](CCCCN)NC(=O)[C@H](CCC(N)=O)NC(=O)[C@H](C)NC(=O)CNC(=O)[C@H](CCC(=O)O)NC(=O)[C@H](Cc2ccc(O)cc2)NC(=O)[C@H](CCCCN)NC(=O)[C@H](CCCNC(=N)N)NC(=O)[C@H](C)NC(=O)[C@H](CCC(N)=O)NC(=O)[C@@H]2CCCN2C(=O)[C@H](Cc2c[nH]cn2)NC(=O)[C@H](CCC(=O)O)NC(=O)[C@H](CCC(N)=O)NC(=O)CC[C@H](NC(=O)CC[C@H](NC(=O)CC[C@H](NC(=O)CC[C@H](NC(=O)CCCCCCCCCCCCCCCCC(=O)O)C(=O)O)C(=O)O)C(=O)O)C(=O)O)CSSC[C@@H](C(=O)O)NC(=O)CNC(=O)[C@H](CC(C)C)NC(=O)CNC(=O)[C@H](CO)NC(=O)[C@H](CC(C)C)NC(=O)[C@H](CO)NC(=O)CNC1=O [compound 1390] ({C18 diacid-γGlu-γGlu-γGlu-γGlu}-QEHPQARKYEGAQKKGLSSGCFGLPLDRIGSLSGLGC-OH; disulfide 21-37; C-terminus assumed) | 84.6
2 | CC[C@H](C)[C@@H]1NC(=O)[C@H](CCCNC(=N)N)NC(=O)[C@H](CC(=O)O)NC(=O)[C@H](CC(C)C)NC(=O)[C@@H]2CCCN2C(=O)[C@H](CC(C)C)NC(=O)CNC(=O)[C@H](Cc2ccccc2)NC(=O)[C@@H](NC(=O)CNC(=O)[C@H](CCCCN)NC(=O)[C@H](CO)NC(=O)CNC(=O)CNC(=O)[C@H](CCCCN)NC(=O)[C@H](CCCCN)NC(=O)[C@H](CCC(N)=O)NC(=O)[C@H](C)NC(=O)CNC(=O)[C@H](CCC(=O)O)NC(=O)[C@H](Cc2ccc(O)cc2)NC(=O)COCCOCCNC(=O)COCCOCCNC(=O)COCCOCCNC(=O)COCCOCCNC(=O)CC[C@H](NC(=O)CCCCCCCCCCCCCCCCC(=O)O)C(=O)O)CSSC[C@@H](C(=O)O)NC(=O)CNC(=O)[C@H](CC(C)C)NC(=O)CNC(=O)[C@H](CO)NC(=O)[C@H](CC(C)C)NC(=O)[C@H](CO)NC(=O)CNC1=O [compound 1391] ({C18 diacid-γGlu-AEEA-AEEA-AEEA-AEEA}-YEGAQKKGGSKGCFGLPLDRIGSLSGLGC-OH; disulfide 13-29) | 37.9
3 | CC[C@H](C)[C@@H]1NC(=O)[C@H](CCCNC(=N)N)NC(=O)[C@H](CC(=O)O)NC(=O)[C@H](CC(C)C)NC(=O)[C@@H]2CCCN2C(=O)[C@H](CC(C)C)NC(=O)CNC(=O)[C@H](Cc2ccccc2)NC(=O)[C@@H](NC(=O)CNC(=O)[C@H](CCC(N)=O)NC(=O)[C@H](CO)NC(=O)[C@H](CC(C)C)NC(=O)CNC(=O)[C@H](CCCCN)NC(=O)[C@H](CCCCN)NC(=O)[C@H](CCC(N)=O)NC(=O)[C@H](C)NC(=O)CNC(=O)[C@H](CCC(=O)O)NC(=O)[C@H](Cc2ccc(O)cc2)NC(=O)COCCOCCNC(=O)COCCOCCNC(=O)COCCOCCNC(=O)COCCOCCNC(=O)CC[C@H](NC(=O)CCCCCCCCCCCCCCCCC(=O)O)C(=O)O)CSSC[C@@H](C(=O)O)NC(=O)CNC(=O)[C@H](CC(C)C)NC(=O)CNC(=O)[C@H](CO)NC(=O)[C@H](CC(C)C)NC(=O)[C@H](CO)NC(=O)CNC1=O [compound 1393] ({C18 diacid-γGlu-AEEA-AEEA-AEEA-AEEA}-YEGAQKKGLSQGCFGLPLDRIGSLSGLGC-OH; disulfide 13-29) | 27.8
4 | CC[C@H](C)[C@@H]1NC(=O)[C@H](CCCNC(=N)N)NC(=O)[C@H](CC(=O)O)NC(=O)[C@H](CC(C)C)NC(=O)[C@@H]2CCCN2C(=O)[C@H](CC(C)C)NC(=O)CNC(=O)[C@H](Cc2ccccc2)NC(=O)[C@@H](NC(=O)CNC(=O)[C@H](CCC(N)=O)NC(=O)[C@H](CO)NC(=O)[C@H](CC(C)C)NC(=O)CNC(=O)[C@H](CCCCN)NC(=O)[C@H](CCCCN)NC(=O)[C@H](CCC(N)=O)NC(=O)[C@H](C)NC(=O)CNC(=O)[C@H](CCC(=O)O)NC(=O)[C@H](Cc2ccc(O)cc2)NC(=O)[C@H](CCCCN)NC(=O)[C@H](CCCNC(=N)N)NC(=O)[C@H](C)NC(=O)[C@H](CCC(N)=O)NC(=O)[C@@H]2CCCN2C(=O)[C@H](Cc2c[nH]cn2)NC(=O)[C@H](CCC(=O)O)NC(=O)[C@H](CCC(N)=O)NC(=O)COCCOCCNC(=O)COCCOCCNC(=O)CC[C@H](NC(=O)CCCCCCCCCCCCCCCCC(=O)O)C(=O)O)CSSC[C@@H](C(=O)O)NC(=O)CNC(=O)[C@H](CC(C)C)NC(=O)CNC(=O)[C@H](CO)NC(=O)[C@H](CC(C)C)NC(=O)[C@H](CO)NC(=O)CNC1=O [compound 1394] ({C18 diacid-γGlu-AEEA-AEEA}-QEHPQARKYEGAQKKGLSQGCFGLPLDRIGSLSGLGC-OH; disulfide 21-37) | 93.9
5 | CC[C@H](C)[C@@H]1NC(=O)[C@H](CCCNC(=N)N)NC(=O)[C@H](CC(=O)O)NC(=O)[C@H](CC(C)C)NC(=O)[C@@H]2CCCN2C(=O)[C@H](CC(C)C)NC(=O)CNC(=O)[C@H](Cc2ccccc2)NC(=O)[C@@H](NC(=O)CNC(=O)[C@H](CCC(N)=O)NC(=O)[C@H](CO)NC(=O)[C@H](CC(C)C)NC(=O)CNC(=O)[C@H](CCCCN)NC(=O)[C@H](CCCCN)NC(=O)[C@H](CCC(N)=O)NC(=O)[C@H](C)NC(=O)CNC(=O)[C@H](CCC(=O)O)NC(=O)[C@H](Cc2ccc(O)cc2)NC(=O)[C@H](CCCCN)NC(=O)[C@H](C)NC(=O)[C@H](C)NC(=O)[C@H](CCC(N)=O)NC(=O)[C@@H]2CCCN2C(=O)[C@H](Cc2c[nH]cn2)NC(=O)[C@H](CCC(=O)O)NC(=O)[C@H](CCC(N)=O)NC(=O)COCCOCCNC(=O)COCCOCCNC(=O)CC[C@H](NC(=O)CCCCCCCCCCCCCCCCC(=O)O)C(=O)O)CSSC[C@@H](C(=O)O)NC(=O)CNC(=O)[C@H](CC(C)C)NC(=O)CNC(=O)[C@H](CO)NC(=O)[C@H](CC(C)C)NC(=O)[C@H](CO)NC(=O)CNC1=O [compound 1395] ({C18 diacid-γGlu-AEEA-AEEA}-QEHPQAAKYEGAQKKGLSQGCFGLPLDRIGSLSGLGC-OH; disulfide 21-37) | 60.2
6 | CC[C@H](C)[C@@H]1NC(=O)[C@H](CCCNC(=N)N)NC(=O)[C@H](CC(=O)O)NC(=O)[C@H](CC(C)C)NC(=O)[C@@H]2CCCN2C(=O)[C@H](CC(C)C)NC(=O)CNC(=O)[C@H](Cc2ccccc2)NC(=O)[C@@H](NC(=O)CNC(=O)[C@H](CCC(N)=O)NC(=O)[C@H](CO)NC(=O)[C@H](CC(C)C)NC(=O)CNC(=O)[C@H](CCCCN)NC(=O)[C@H](CCCCN)NC(=O)[C@H](CCC(N)=O)NC(=O)[C@H](C)NC(=O)CNC(=O)[C@H](CCC(=O)O)NC(=O)[C@H](Cc2ccc(O)cc2)NC(=O)[C@H](CCCCN)NC(=O)[C@H](CCCNC(=N)N)NC(=O)[C@H](C)NC(=O)[C@H](CCC(N)=O)NC(=O)[C@@H]2CCCN2C(=O)[C@H](Cc2c[nH]cn2)NC(=O)[C@H](CCC(=O)O)NC(=O)[C@H](CCC(N)=O)NC(=O)COCCOCCNC(=O)COCCOCCNC(=O)CC[C@H](NC(=O)CC[C@H](NC(=O)CCCCCCCCCCCCCCCCC(=O)O)C(=O)O)C(=O)O)CSSC[C@@H](C(=O)O)NC(=O)CNC(=O)[C@H](CC(C)C)NC(=O)CNC(=O)[C@H](CO)NC(=O)[C@H](CC(C)C)NC(=O)[C@H](CO)NC(=O)CNC1=O [compound 1396] ({C18 diacid-γGlu-γGlu-AEEA-AEEA}-QEHPQARKYEGAQKKGLSQGCFGLPLDRIGSLSGLGC-OH; disulfide 21-37) | 43.1
